Reference: patent US11053242B2, “[9,10-dimethoxy-3-(2-methylpropyl)-1H,2H,3H,4H,6H,7H,11BH-pyrido-[2,1-a]isoquinolin-2-yl]methanol and compounds, compositions and methods relating thereto” (Neurocrine Biosciences, Inc., priority 2015, dated 2021)

Target: VMAT2 (human platelet homogenate) (Homo sapiens (Human), UniProt Q05940)
Assay: Human VMAT2 Ki, slightly modified competition binding procedure (Table 11);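 also: competition binding with 90 min incubation at 25 °C, after which filter-retained radioligand was measured by scintillation counting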
Conditions: 10 nM 3H-dihydrotetrabenazine
Experimental: Following incubation at 25° C. for 90 minutes, bound radioligand was collected by rapid filtration onto GF/B glass fiber filters using a Unifilter-96 Harvester (PerkinElmer). Filter plates were pre-treated with 0.1% polyethylenimine and allowed to dry overnight, and following harvesting the filter plates were washed with 800 d VMAT2 binding buffer. Bound radioligand was quantified by scintillation counting using a Topcount NXT (PerkinElmer).

Chain of VMAT2 (human platelet homogenate) (Q05940 whole entry): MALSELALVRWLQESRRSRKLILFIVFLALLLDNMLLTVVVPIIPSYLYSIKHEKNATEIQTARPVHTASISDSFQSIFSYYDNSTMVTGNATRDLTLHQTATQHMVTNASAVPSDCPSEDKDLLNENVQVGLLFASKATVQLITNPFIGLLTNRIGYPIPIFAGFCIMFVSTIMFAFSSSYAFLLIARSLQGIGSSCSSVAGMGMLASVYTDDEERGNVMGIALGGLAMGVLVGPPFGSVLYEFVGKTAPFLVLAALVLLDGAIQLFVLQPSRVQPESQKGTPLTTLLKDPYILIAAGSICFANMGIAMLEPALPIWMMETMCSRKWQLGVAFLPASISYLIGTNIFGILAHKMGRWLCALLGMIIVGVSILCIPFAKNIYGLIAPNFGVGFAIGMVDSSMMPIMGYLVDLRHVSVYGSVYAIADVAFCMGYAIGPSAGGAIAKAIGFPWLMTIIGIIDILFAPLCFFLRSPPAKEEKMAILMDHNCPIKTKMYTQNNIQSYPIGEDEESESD

Row | SMILES | Ki [nM]
1 | COc1cc2c(cc1OC)[C@H]1C[C@@H](COC(=O)[C@@H]3CCCN(Cc4ccccc4)C3)[C@H](CC(C)C)CN1CC2 [Compound 2-11, [(2R,3S,11bR)-9,10-dimethoxy-3-(2-methylpropyl)-1H,2H,3H,4H,6H,7H,11bH-pyrido[2,1-a]isoquinolin-2-yl]methyl (3R)-1-benzylpiperidine-3-carboxylate] | < 10
2 | COc1cc2c(cc1OC)[C@H]1C[C@@H](COC(=O)CS(=O)(=O)O)[C@H](CC(C)C)CN1CC2 [Compound 2-35, 2-{[(2R,3S,11bR)-9,10-dimethoxy-3-(2-methylpropyl)-1H,2H,3H,4H,6H,7H,11bH-pyrido[2,1-a]isoquinolin-2-yl]methoxy}-2-oxoethane-1-sulfonic acid] | > 500
3 | COc1cc2c(cc1OC)[C@H]1C[C@@H](COC(=O)C3(C)COC3)[C@H](CC(C)C)CN1CC2 [Compound 2-18, [(2R,3S,11bR)-9,10-dimethoxy-3-(2-methylpropyl)-1H,2H,3H,4H,6H,7H,11bH-pyrido[2,1-a]isoquinolin-2-yl]methyl 3-methyloxetane-3-carboxylate] | < 10
4 | CCN(CC)CCC(=O)OC[C@@H]1C[C@@H]2c3cc(OC)c(OC)cc3CCN2C[C@H]1CC(C)C [Compound 2-32, [(2R,3S,11bR)-9,10-dimethoxy-3-(2-methylpropyl)-1H,2H,3H,4H,6H,7H,11bH-pyrido[2,1-a]isoquinolin-2-yl]methyl 3-(diethylamino)propanoate] | < 10
5 | COc1cc2c(cc1OC)[C@H]1C[C@@H](COC(=O)CCN3CCCCC3)[C@H](CC(C)C)CN1CC2 [Compound 2-19, [(2R,3S,11bR)-9,10-dimethoxy-3-(2-methylpropyl)-1H,2H,3H,4H,6H,7H,11bH-pyrido[2,1-a]isoquinolin-2-yl]methyl 3-(piperidin-1-yl)propanoate] | < 10
6 | COc1cc2c(cc1OC)[C@H]1C[C@@H](COC(=O)CCn3cnnn3)[C@H](CC(C)C)CN1CC2 [Compound 2-13, [(2R,3S,11bR)-9,10-dimethoxy-3-(2-methylpropyl)-1H,2H,3H,4H,6H,7H,11bH-pyrido[2,1-a]isoquinolin-2-yl]methyl 3-(1H-1,2,3,4-tetrazol-1-yl)propanoate] | < 10
7 | COc1cc2c(cc1OC)[C@H]1C[C@@H](COC(=O)CCN(C)C)[C@H](CC(C)C)CN1CC2 [Compound 2-7, [(2R,3S,11bR)-9,10-dimethoxy-3-(2-methylpropyl)-1H,2H,3H,4H,6H,7H,11bH-pyrido[2,1-a]isoquinolin-2-yl]methyl 3-(dimethylamino)propanoate] | < 10
8 | COc1cc2c(cc1OC)[C@H]1C[C@@H](COC(=O)N(C)C(C)C(=O)O)[C@H](CC(C)C)CN1CC2 (stereo partly drawn) [Compound 5-28, 2-[({[(2R,3S,11bR)-9,10-dimethoxy-3-(2-methylpropyl)-1H,2H,3H,4H,6H,7H,11bH-pyrido[2,l-a]isoquinolin-2-yl]methoxy}carbonyl)(methyl)amino]propanoic acid] | > 500
9 | COc1cc2c(cc1OC)[C@H]1C[C@@H](COC(=O)CCn3c(=O)[nH]c4ccccc4c3=O)[C@H](CC(C)C)CN1CC2 [Compound 2-3, [(2R,3S,11bR)-9,10-dimethoxy-3-(2-methylpropyl)-1H,2H,3H,4H,6H,7H,11bH-pyrido[2,1-a]isoquinolin-2-yl]methyl 3-(2,4-dioxo-1,2,3,4-tetrahydroquinazolin-3-yl)propanoate] | < 10
10 | COc1cc2c(cc1OC)[C@H]1C[C@@H](COC(=O)CC[N+](=O)[O-])[C@H](CC(C)C)CN1CC2 [Compound 2-14, [(2R,3S,11bR)-9,10-dimethoxy-3-(2-methylpropyl)-1H,2H,3H,4H,6H,7H,11bH-pyrido[2,1-a]isoquinolin-2-yl]methyl 3-nitropropanoate] | < 10
11 | CCCCCC(=O)OC[C@@H]1C[C@@H]2c3cc(OC)c(OC)cc3CCN2C[C@H]1CC(C)C [Compound 2-34, [(2R,3S,11bR)-9,10-dimethoxy-3-(2-methylpropyl)-1H,2H,3H,4H,6H,7H,11bH-pyrido[2,1-a]isoquinolin-2-yl]methyl hexanoate] | < 10

The next lines start with the values.

Row | Ki [nM] | SMILES
12 | < 10 | COc1cc2c(cc1OC)[C@H]1C[C@@H](COC(=O)C3CNCCO3)[C@H](CC(C)C)CN1CC2 (stereo partly drawn) [Compound 4-27, [(2R,3S,11bR)-9,10-dimethoxy-3-(2-methylpropyl)-1H,2H,3H,4H,6H,7H,11bH-pyrido[2,1-a]isoquinolin-2-yl]methyl morpholine-2-carboxylate]
13 | 10 to 500 | COc1cc2c(cc1OC)[C@H]1C[C@@H](COC(=O)N(C)C)[C@H](CC(C)C)CN1CC2 [Compound 5-29, [(2R,3S,11bR)-9,10-dimethoxy-3-(2-methylpropyl)-1H,2H,3H,4H,6H,7H,11bH-pyrido[2,1-a]isoquinolin-2-yl]methyl N,N-dimethylcarbamate]
14 | < 10 | COc1cc2c(cc1OC)[C@H]1C[C@@H](COC[C@@H]3CCCN3)[C@H](CC(C)C)CN1CC2 [Compound 10-4, (2S)-2-({[(2R,3S,11bR)-9,10-dimethoxy-3-(2-methylpropyl)-1H,2H,3H,4H,6H,7H,11bH-pyrido[2,1-a]isoquinolin-2-yl]methoxy}methyl)pyrrolidine]
15 | 10 to 500 | COc1cc2c(cc1OC)[C@H]1C[C@@H](COC(=O)[C@@H](N)c3ccccc3)[C@H](CC(C)C)CN1CC2 [Compound 4-33, [(2R,3S,11bR)-9,10-dimethoxy-3-(2-methylpropyl)-1H,2H,3H,4H,6H,7H,11bH-pyrido[2,1-a]isoquinolin-2-yl]methyl (2S)-2-amino-2-phenylacetate]
16 | > 500 | COc1cc2c(cc1OC)[C@H]1C[C@@H](COC(=O)N3CCN(C)CC3)[C@H](CC(C)C)CN1CC2 [Compound 5-7, [(2R,3S,11bR)-9,10-dimethoxy-3-(2-methylpropyl)-1H,2H,3H,4H,6H,7H,11bH-pyrido[2,1-a]isoquinolin-2-yl]methyl 4-methylpiperazine-1-carboxylate]
17 | < 10 | COc1cc2c(cc1OC)[C@H]1C[C@@H](COC(=O)CC(N)C(C)C)[C@H](CC(C)C)CN1CC2 (stereo partly drawn) [Compound 4-17, [(2R,3S,11bR)-9,10-dimethoxy-3-(2-methylpropyl)-1H,2H,3H,4H,6H,7H,11bH-pyrido[2,1-a]isoquinolin-2-yl]methyl 3-amino-4-methylpentanoate]
18 | 10 to 500 | COc1cc2c(cc1OC)[C@H]1C[C@@H](COC(=O)N3C[C@@H](C)O[C@@H](C)C3)[C@H](CC(C)C)CN1CC2 [Compound 5-53, [(2R,3S,11bR)-9,10-dimethoxy-3-(2-methylpropyl)-1H,2H,3H,4H,6H,7H,11bH-pyrido[2,1-a]isoquinolin-2-yl]methyl (2R,6S)-2,6-dimethylmorpholine-4-carboxylate]
19 | < 10 | COc1cc2c(cc1OC)[C@H]1C[C@@H](COC(=O)N3CCNC(=O)C3C)[C@H](CC(C)C)CN1CC2 (stereo partly drawn) [Compound 5-21, [(2R,3S,11bR)-9,10-dimethoxy-3-(2-methylpropyl)-1H,2H,3H,4H,6H,7H,11bH-pyrido[2,1-a]isoquinolin-2-yl]methyl 2-methyl-3-oxopiperazine-1-carboxylate]
20 | < 10 | COCOC[C@@H]1C[C@@H]2c3cc(OC)c(OC)cc3CCN2C[C@H]1CC(C)C [Compound 9-5, (2R,3S,11bR)-9,10-dimethoxy-2-[(methoxymethoxy)methyl]-3-(2-methylpropyl)-1H,2H,3H,4H,6H,7H,11bH-pyrido[2,1-a]isoquinoline]
21 | < 10 | COc1cc2c(cc1OC)[C@H]1C[C@@H](COC(=O)N3CCN(C4CCCCC4)CC3)[C@H](CC(C)C)CN1CC2 [Compound 5-18, [(2R,3S,11bR)-9,10-dimethoxy-3-(2-methylpropyl)-1H,2H,3H,4H,6H,7H,11bH-pyrido[2,1-a]isoquinolin-2-yl]methyl 4-cyclohexylpiperazine-1-carboxylate]
22 | < 10 | COc1cc2c(cc1OC)[C@H]1C[C@@H](COC(=O)CCN)[C@H](CC(C)C)CN1CC2 [Compound 4-24, [(2R,3S,11bR)-9,10-dimethoxy-3-(2-methylpropyl)-1H,2H,3H,4H,6H,7H,11bH-pyrido[2,1-a]isoquinolin-2-yl]methyl 3-aminopropanoate]
23 | < 10 | COc1cc2c(cc1OC)[C@H]1C[C@@H](COC[C@@H]3CCNC3)[C@H](CC(C)C)CN1CC2 [Compound 10-2, (3R)-3-({[(2R,3S,11bR)-9,10-dimethoxy-3-(2-methylpropyl)-1H,2H,3H,4H,6H,7H,11bH-pyrido[2,1-a]isoquinolin-2-yl]methoxy}methyl)pyrrolidine]
24 | > 500 | COc1cc2c(cc1OC)[C@H]1C[C@@H](COC(=O)N[C@H](C)C(=O)O)[C@H](CC(C)C)CN1CC2 [Compound 5-45, (2R)-2-[({[(2R,3S,11bR)-9,10-dimethoxy-3-(2-methylpropyl)-1H,2H,3H,4H,6H,7H,11bH-pyrido[2,1-a]isoquinolin-2-yl]methoxy}carbonyl)amino]propanoic acid]
25 | < 10 | COc1cc2c(cc1OC)[C@H]1C[C@@H](COC(=O)N3CC(C)NCC3C)[C@H](CC(C)C)CN1CC2 (stereo partly drawn) [Compound 6-14, [(2R,3S,11bR)-9,10-dimethoxy-3-(2-methylpropyl)-1H,2H,3H,4H,6H,7H,11bH-pyrido[2,1-a]isoquinolin-2-yl]methyl 2,5-dimethylpiperazine-1-carboxylate]
26 | < 10 | COc1cc2c(cc1OC)[C@H]1C[C@@H](COCCC3CCNCC3)[C@H](CC(C)C)CN1CC2 [Compound 10-1, 4-(2-{[(2R,3S,11bR)-9,10-dimethoxy-3-(2-methylpropyl)-1H,2H,3H,4H,6H,7H,11bH-pyrido[2,1-a]isoquinolin-2-yl]methoxy}ethyl)piperidine]
27 | 10 to 500 | COc1cc2c(cc1OC)[C@H]1C[C@@H](COC(=O)[C@@H]3COCCN3)[C@H](CC(C)C)CN1CC2 [Compound 4-3, [(2R,3S,11bR)-9,10-dimethoxy-3-(2-methylpropyl)-1H,2H,3H,4H,6H,7H,11bH-pyrido[2,1-a]isoquinolin-2-yl]methyl (3S)-morpholine-3-carboxylate]
28 | 10 to 500 | CCCCCCOCC1CC2c3cc(OC)c(OC)cc3CCN2CC1CC(C)C (stereo not shown) [Compound 10-3, 2-[(hexyloxy)methyl]-9,10-dimethoxy-3-(2-methylpropyl)-1H,2H,3H,4H,6H,7H,11bH-pyrido[2,1-a]isoquinoline]
